Assay results reported in patent US8304442B2, “Compounds having immunomodulator activity” (Ganial Immunotherapeutics, Inc., priority 2005, dated 2012).

Assays:
[1] = tested on: Peritoneal macrophages (PM); test: In vitro cytokine synthesis by LPS-stimulated peritoneal macrophages; format: cell-based, mice
Experimental: (§1) Peritoneal macrophages (PM) and splenic mononuclear cells (SMNC) were isolated from normal mice, were cultured in nutrient medium and stimulated with LPS and/or ConA, respectively in the absence or presence of GIT27. […] GIT27 had no effect on MIF expression in either cell type, on proliferation of SMNC, and on IL-10 and Interferon (IFN) gamma production by SMNC.

[2] = tested on: splenic mononuclear cells (SMNC); test: In vitro proliferation and cytokine synthesis by ConA-stimulated splenic mononuclear cells; format: cell-based, mice
Experimental: as §1

[3] = tested on: Peritoneal macrophages (PM); test: Ex vivo cytokine synthesis of PM isolated from GIT27 treated mice; format: in vivo; conditions: mice treated 7 days i.p. 0.5 mg/mouse or p.o. 2.5 mg/mouse
Experimental: (§2) These experiments were carried out to explore if intraperitoneal (i.p.) or per os (p.o.) treatment of mice with GIT27 could influence the proliferative response of SMNC and the production of IL-1β, IL-10, TNF-α, IFN-γ and MIF from isolated PM and SMNC. PM and SMNC isolated from mice treated in vivo with GIT27 for 7 consecutive days i.p. (0.5 mg/mouse), or p.o. (2.5 mg/mouse), or isolated from control animals that received GIT27 vehicle (Na2HPO4/H2O), or were without any treatment. 24 h after the last GIT27 treatment, PM and SMNC were collected for further in vitro stimulation and analysis.

[4] = tested on: splenic mononuclear cells (SMNC); test: Ex vivo proliferation and cytokine synthesis of SMNC isolated from GIT27 treated mice; format: in vivo; conditions: mice treated 7 days i.p. 0.5 mg/mouse or p.o. 2.5 mg/mouse
Experimental: as §2

[5] = tested on: NF-kB; test: LPS-induced NF-kB DNA binding in monocyte-derived human macrophages; format: cell-based
[6] = tested on: LPS-induced lethality; test: LPS-induced lethality in vivo; parameters: species or system mice; conditions: for protection from LPS-induced lethality: therapeutic
Experimental: As expected, most of the control mice either untreated or that received the vehicle of GIT27 succumbed to LPS-challenge within 3 days. […] In contrast, the treatment with GIT27 given either po or ip protect the mice from the lethal effects of LPS in a dose-dependent fashion. When given p.o., GIT27 was effective at the dose of 2.5 mg/mouse and dosed out both at 1.5 and 3 mg/mouse.

[7] = tested on: CAR-induced pleurisy; test: Carrageenan (CAR) induced pleurisy; format: in vivo, mice; conditions: prophylactic treatment
Excerpt: GIT27 powerfully suppresses CAR-induced pleurisy in mice All the mice that were challenged with CAR and left untreated or treated with the vehicle of GIT27 developed an acute pleurisy, with production of turbid exudate, PMNs infiltration, and myeloperoxidase (MPO) activity accumulation in the lung.

[8] = tested on: type II CIA; test: Type II collagen-induced arthritis (CIA); format: in vivo, mice; conditions: therapeutic
Experimental: To evaluate the therapeutic effect of GIT27 in arthritis, mice developing type II CIA were treated for 10 consecutive days. […] Control mice were treated under the same experimental regime with the vehicle of GIT27.
The vehicle-treated control mice rapidly develop full clinical signs of type II CIA with a progressive increment of the arthritic clinical scores and severe hind paws oedema. This clinical picture was reflected by severe inflammatory arthritis as indicated by the high the progressive increment of the arthritic histological scores determinated by histological evaluation.

[9] = tested on: oxazolone-induced hypersensitivity; test: Oxazolone-induced dermatitis; format: in vivo, mice
Experimental: While the first application of oxazolone sensitizes the mice, the second elicits the hypersensitivity reaction. The dermatitis manifestations appear 18 hours after the second epicutaneous exposure to oxazolone, both ear thickness and weight markedly and progressively increase. The in vivo studies to assess the pharmacological activity of GIT27, were planned with two set of experimental. In the first set, the mice were treated during or before the sensitization phase. […] To evaluate the effects of GIT27 on the elicitation phase of oxazolone-induced dermatitis, the treatment with GIT27 was given one hour after the second epicutancous exposure to oxazolone, when start the progression of the immunoinflammatory responses.

[10] = tested on: MLD-STZ induced diabetes; test: Diabetes induced by multiple low doses of streptozotocin; format: in vivo, CBA/H mice; conditions: prophylactic
Excerpt: Both i.p and p.o. treatment with GIT27 suppressed clinical development of diabetes that is induced in CBA/H mice by multiple low doses of streptozotocin. CBA/H mice developed sustained hyperglycaemia over a 2-week period following MLD-STZ injections. As expected, CBA/H control mice treated with the vehicle of GIT27 either i.p. or p.o. develop diabetes with sustained hyperglycaemia developed over a 2-week period following MLD-STZ injections.

[11] = tested on: DNB-induced colitis; test: DNB-induced colitis; format: in vivo, mice
Experimental: Within 5 days after challenge with dinitrobenzene sulfonic acid (DNB), mice develop colitis. The disease severity is evaluated based on a macroscopic score. The vehicle-treated control mice and untreated mice developed colitis with a predictable and progressive increase in inflammation and body weight loss. […] The colons of the control mice and of the GIT27 treated mice were removed, sectioned, fixed, and stained with hematoxylin and eosin. […] The tissue myeloperoxidase activity is a well established marker to assess the inflammatory cell (mainly neutrophils) infiltration. […] We counted an average of 8,9±1.2 (means±SD) cells/high power field in the of DNB-induced animals, whereas there were only 3.37±0.8 cells/high-power field in DNB-induced animals pretreated with GIT27 (p<0.0001).

[12] = tested on: IL-10; conditions: J. Exp Med.; cited from earlier work
[13] = 10 consecutive days from clinical score ≧1, vs vehicle
[14] = treated during or before the sensitization phase

Compound: O=C(O)CC1CC(c2ccccc2)=NO1 (centres unmarked) [GIT27, 3-phenyl-4,5-dihydro-5-isoxazoleacetic acid]
- MIF expression in PM [1]: no effect
- production of IL-1β by PM ([1]; LPS stimulated): inhibited
- production of IL-10 by PM ([1]; LPS stimulated): inhibited
- production of TNF α by PM ([1]; LPS stimulated): markedly inhibited
- MIF expression in SMNC [2]: no effect
- IL-10 production by SMNC ([2]; ConA stimulated): no effect
- Interferon (IFN) gamma production by SMNC ([2]; ConA stimulated): no effect
- production of TNF α by SMNC ([2]; ConA stimulated): markedly inhibited
- proliferation of SMNC ([2]; ConA stimulated): no effect
- MIF expression by PM upon mitogenic stimulation [3]: normal pattern
- synthesis of IL-1β by PM [3]: impaired synthesis
- synthesis of IL-10 by PM [3]: impaired synthesis
- synthesis of TNF α by PM [3]: impaired synthesis
- IFN-γ production by SMNC upon stimulation [4]: normal capacity to produce
- IL-1β production by SMNC upon stimulation [4]: normal capacity to produce
- IL-10 production by SMNC upon stimulation [4]: normal capacity to produce
- MIF expression by SMNC [4]: normal expression pattern
- TNF-α production by SMNC upon stimulation [4]: normal capacity to produce
- proliferation of SMNC [4]: normal capacity to proliferate
- DNA binding of NF-kB induced by LPS [5]: powerfully inhibits in a dose-dependent fashion
- protection from LPS-induced lethality ([6]; i.p., between 0.25 and 0.5 mg/mouse): dose-dependent protection
- LPS-induced lethality ([6]; p.o. and i.p., prophylactic regime (-24 and -1 hour prior to LPS)): significantly reducing
- protection from LPS-induced lethality ([6]; p.o., 2.5 mg/mouse): effective
- protection from LPS-induced lethality ([6]; p.o., 1.5 and 3 mg/mouse): dosed out
- LPS-induced lethality ([6]; therapeutic administration, overall): powerfully counteracts
- PMNs infiltration [7]: reduced
- myeloperoxidase (MPO) activity accumulation in the lung [7]: reduced
- production of exudate [7]: reduced
- overall effect on CAR-induced pleurisy ([7]; comparable to antibody against mouse TNF-alpha): powerful protective effect
- clinical arthritic scores [8, 13]: lower
- histological arthritic scores [8, 13]: lower
- progression of the arthritic disease ([8]; 10 consecutive days, potency comparable to dexamethasone): significantly slower progression
- ear thickness ([9]; elicitation phase: treated one hour after second exposure to oxazolone): significant decrease
- increment of ear thickness [9, 14]: significantly suppressed
- increment of ear weight [9, 14]: significantly suppressed
- diabetogenic effect of MLD-STZ (hyperglycaemia) ([10]; i.p.): significantly reduced
- development of hyperglycaemia ([10]; p.o.): significantly reducing
- inflammatory cell infiltration (colon myeloperoxidase activity) ([11]; 5 days after induction of colitis, p<0.0001): significant reduction
- infiltrating neutrophils in histology samples ([11]; means±SD, DNB-induced animals pretreated, p<0.0001): 3.37±0.8 cells/high-power field
- tissue damage (colon histology) ([11]; treated before DNB-induced colitis, vs control mice): significantly reduced
- weight loss ([11]; vs control groups): significant reduction
- increase in colon weight ([11]; vs controls): significantly lower
- progression of inflammatory colitis (macroscopic score) ([11]; vs controls, p<0.001): significantly attenuated

Compound: Cyclosporin A
- IL-10 synthesis in vitro [12]: down-regulates
